# According to patent US11572590B2, “Methods for evaluating tumor cell spheroids using 3D microfluidic cell culture device” (Dana-Farber Cancer Institute, Inc., priority 2017, dated 2023):
# Like-named read-outs stand apart in the source and are kept apart here.
# What was measured:
# Experiment in all cases: SelectScreen Kinase Profiling, single point inhibition and IC50 for off-target kinases
# Type in all cases: biochemical
# [1] = target: off-target kinases (Homo sapiens, UniProt P51812); details: RPS6KA3 (RSK2), ZLYTE, ATP Km app
# [2] = target: T1, off-target kinases (Homo sapiens, UniProt Q9HBY8); details: SGK2, ZLYTE, ATP Km app
# T1 sequence (Q9HBY8 1-367): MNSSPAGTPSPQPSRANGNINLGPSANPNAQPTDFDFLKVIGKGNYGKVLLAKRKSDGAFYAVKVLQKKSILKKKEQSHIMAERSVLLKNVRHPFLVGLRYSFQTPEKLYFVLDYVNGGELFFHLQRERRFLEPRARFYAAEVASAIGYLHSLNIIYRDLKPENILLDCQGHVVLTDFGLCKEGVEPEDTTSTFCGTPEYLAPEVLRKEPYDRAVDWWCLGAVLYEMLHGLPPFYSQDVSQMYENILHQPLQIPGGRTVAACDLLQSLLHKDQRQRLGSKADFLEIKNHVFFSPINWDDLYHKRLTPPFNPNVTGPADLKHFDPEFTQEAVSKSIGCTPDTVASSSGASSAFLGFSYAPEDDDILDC
# [3] = target: T2, off-target kinases (Homo sapiens, UniProt Q9UL54); details: TAOK2 (TAO1), ZLYTE, ATP Km app
# T2 sequence (Q9UL54 1-1235): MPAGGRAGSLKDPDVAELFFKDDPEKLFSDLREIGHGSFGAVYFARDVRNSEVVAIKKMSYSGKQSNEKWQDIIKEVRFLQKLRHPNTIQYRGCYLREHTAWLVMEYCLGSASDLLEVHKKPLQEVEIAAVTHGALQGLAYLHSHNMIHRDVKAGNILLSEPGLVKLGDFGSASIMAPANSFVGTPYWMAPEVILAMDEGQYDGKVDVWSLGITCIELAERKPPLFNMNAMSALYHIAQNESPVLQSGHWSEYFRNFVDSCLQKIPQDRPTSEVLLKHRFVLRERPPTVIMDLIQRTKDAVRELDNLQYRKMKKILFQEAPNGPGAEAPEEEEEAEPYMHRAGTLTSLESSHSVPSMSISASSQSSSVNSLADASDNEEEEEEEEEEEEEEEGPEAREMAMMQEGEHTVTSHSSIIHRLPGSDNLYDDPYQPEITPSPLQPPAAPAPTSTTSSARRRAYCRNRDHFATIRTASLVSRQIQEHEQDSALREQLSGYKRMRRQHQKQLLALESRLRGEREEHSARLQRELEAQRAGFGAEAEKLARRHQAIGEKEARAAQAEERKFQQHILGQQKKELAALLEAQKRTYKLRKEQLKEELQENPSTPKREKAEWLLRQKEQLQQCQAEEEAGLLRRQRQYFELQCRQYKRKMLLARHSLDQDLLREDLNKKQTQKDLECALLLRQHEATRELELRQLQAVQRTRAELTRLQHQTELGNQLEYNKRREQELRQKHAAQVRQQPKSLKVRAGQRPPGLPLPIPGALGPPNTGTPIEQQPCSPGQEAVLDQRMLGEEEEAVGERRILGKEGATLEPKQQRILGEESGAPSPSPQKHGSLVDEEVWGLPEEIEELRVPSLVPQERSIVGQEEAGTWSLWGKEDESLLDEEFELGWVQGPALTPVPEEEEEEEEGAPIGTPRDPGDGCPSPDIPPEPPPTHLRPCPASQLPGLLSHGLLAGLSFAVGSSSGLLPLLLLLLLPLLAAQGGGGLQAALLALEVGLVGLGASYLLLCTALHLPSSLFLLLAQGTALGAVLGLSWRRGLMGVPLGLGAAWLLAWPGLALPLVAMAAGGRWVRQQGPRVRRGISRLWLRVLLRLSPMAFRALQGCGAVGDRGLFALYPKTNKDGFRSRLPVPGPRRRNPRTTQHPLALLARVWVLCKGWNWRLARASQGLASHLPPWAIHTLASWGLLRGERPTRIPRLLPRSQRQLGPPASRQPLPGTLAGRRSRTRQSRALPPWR
# [4] = target: off-target kinases (Homo sapiens, UniProt Q5S007, G2019S); details: ATP Km app, Adapta
# off-target kinases (Homo sapiens, UniProt Q5S007, G2019S), sequence (Q5S007 whole entry G2019S): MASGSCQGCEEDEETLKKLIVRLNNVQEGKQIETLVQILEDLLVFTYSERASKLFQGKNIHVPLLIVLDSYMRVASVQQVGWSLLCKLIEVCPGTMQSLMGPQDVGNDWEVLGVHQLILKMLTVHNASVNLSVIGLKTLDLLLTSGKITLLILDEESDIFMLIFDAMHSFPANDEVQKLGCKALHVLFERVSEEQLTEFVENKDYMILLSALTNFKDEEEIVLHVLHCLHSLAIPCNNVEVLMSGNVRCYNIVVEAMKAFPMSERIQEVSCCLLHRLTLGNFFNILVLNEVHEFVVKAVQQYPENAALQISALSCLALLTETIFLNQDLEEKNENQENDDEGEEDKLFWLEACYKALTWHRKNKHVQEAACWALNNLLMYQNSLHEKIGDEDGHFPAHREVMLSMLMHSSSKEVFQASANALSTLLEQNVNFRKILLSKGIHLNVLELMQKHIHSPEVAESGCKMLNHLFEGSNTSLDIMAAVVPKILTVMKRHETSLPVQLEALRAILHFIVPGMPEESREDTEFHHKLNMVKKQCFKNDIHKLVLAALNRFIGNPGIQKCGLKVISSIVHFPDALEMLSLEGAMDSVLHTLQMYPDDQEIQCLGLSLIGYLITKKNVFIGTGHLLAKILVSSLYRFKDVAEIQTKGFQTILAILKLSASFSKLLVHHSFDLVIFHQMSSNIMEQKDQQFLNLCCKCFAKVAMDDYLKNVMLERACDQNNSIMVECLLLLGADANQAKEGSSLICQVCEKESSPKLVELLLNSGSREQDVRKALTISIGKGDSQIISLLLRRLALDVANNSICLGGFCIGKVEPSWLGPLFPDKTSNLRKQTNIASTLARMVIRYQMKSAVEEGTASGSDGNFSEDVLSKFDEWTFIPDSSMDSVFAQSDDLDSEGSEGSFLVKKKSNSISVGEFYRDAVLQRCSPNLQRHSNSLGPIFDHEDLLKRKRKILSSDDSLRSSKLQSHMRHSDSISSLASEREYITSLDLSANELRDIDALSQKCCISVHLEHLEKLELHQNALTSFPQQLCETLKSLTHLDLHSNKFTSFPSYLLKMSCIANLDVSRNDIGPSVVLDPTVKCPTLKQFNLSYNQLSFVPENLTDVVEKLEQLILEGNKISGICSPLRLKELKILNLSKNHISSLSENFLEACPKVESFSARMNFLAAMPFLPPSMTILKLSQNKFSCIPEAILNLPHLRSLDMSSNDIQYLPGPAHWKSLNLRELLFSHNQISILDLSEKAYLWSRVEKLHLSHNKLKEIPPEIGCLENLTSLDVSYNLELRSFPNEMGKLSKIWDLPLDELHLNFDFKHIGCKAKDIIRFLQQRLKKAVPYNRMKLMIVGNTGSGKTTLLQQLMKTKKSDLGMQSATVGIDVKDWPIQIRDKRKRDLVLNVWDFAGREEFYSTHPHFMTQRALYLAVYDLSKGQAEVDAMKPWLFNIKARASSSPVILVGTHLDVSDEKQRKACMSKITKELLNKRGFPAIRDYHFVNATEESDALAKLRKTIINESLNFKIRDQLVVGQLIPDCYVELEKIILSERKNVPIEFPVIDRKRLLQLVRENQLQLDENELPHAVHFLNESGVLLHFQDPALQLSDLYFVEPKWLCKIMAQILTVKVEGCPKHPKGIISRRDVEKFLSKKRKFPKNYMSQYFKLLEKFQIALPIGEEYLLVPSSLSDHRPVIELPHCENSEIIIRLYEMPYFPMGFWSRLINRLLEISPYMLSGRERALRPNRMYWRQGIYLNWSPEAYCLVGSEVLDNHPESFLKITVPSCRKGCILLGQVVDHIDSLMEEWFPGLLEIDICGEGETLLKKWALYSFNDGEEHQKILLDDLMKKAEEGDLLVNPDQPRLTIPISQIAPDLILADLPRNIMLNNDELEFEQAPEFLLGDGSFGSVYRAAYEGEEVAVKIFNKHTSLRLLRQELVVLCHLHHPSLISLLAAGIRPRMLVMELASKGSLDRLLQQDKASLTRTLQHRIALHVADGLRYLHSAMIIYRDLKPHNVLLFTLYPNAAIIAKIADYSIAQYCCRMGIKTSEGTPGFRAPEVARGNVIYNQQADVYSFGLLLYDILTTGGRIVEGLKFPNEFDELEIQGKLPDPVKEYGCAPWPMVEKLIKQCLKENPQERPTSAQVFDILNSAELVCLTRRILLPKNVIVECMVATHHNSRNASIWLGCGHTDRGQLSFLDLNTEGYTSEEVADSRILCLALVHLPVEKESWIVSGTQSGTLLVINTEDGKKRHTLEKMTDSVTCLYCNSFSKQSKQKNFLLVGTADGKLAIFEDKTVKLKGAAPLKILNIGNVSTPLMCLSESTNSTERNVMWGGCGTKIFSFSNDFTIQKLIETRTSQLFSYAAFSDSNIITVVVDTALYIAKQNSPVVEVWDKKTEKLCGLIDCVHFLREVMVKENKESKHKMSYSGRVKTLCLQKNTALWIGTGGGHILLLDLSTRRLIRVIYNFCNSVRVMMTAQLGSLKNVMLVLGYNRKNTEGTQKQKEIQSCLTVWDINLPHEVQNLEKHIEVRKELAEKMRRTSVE
# off-target kinases (Homo sapiens, UniProt P51812), sequence (P51812 whole entry): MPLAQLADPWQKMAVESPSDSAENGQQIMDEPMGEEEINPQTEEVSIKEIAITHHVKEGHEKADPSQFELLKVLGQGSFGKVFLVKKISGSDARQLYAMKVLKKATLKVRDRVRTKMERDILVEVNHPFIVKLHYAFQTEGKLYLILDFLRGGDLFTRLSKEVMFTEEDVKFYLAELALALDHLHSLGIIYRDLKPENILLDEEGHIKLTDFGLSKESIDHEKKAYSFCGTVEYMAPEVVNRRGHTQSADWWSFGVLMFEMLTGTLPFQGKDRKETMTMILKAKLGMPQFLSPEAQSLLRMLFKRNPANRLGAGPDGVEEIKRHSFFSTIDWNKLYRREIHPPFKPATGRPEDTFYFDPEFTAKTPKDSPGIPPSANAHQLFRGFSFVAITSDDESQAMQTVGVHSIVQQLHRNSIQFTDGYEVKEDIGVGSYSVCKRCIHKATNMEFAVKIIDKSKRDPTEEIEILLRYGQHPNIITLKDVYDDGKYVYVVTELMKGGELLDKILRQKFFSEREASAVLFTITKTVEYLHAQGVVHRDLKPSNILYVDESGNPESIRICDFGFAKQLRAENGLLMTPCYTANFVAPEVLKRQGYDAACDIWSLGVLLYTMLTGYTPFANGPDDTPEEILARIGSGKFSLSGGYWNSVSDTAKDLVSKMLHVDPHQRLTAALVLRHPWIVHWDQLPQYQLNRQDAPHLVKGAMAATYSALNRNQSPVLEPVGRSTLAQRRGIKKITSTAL
smiles,measurement,setting,value
"N#Cc1cc(-c2ncnc(Nc3ccc(N4CCN(C5COC5)CC4)cc3)n2)ccc1OC1CCOCC1 [Compound 1, 5-(4-((4-(4-(oxetan-3-yl)piperazin-1-yl)phenyl)amino)-1,3,5-triazin-2-yl)-2-((tetrahydro-2H-pyran-4-yl)oxy)benzonitrile]",inhibition,[1]; read-out: % Inhibition 1,17%
same,inhibition,[1]; read-out: % Inhibition 2,10%
same,inhibition,[1]; read-out: % Inhibition Avg,14%
same,inhibition,[2]; read-out: % Inhibition 1,7%
same,inhibition,[2]; read-out: % Inhibition 2,12%
same,inhibition,[2]; read-out: % Inhibition Avg,10%
same,inhibition,[3]; read-out: % Inhibition 1,3%
same,inhibition,[3]; read-out: % Inhibition 2,6%
same,inhibition,[3]; read-out: % Inhibition Avg,5%
same,inhibition,"[4]; LRRK2 G2019S FL, read-out: % Inhibition 1",100%
same,inhibition,"[4]; LRRK2 G2019S FL, read-out: % Inhibition 2",99%
same,inhibition,"[4]; LRRK2 G2019S FL, read-out: % Inhibition Avg",99%
same,inhibition,"[4]; LRRK2 G2019S, read-out: % Inhibition 1",99%
same,inhibition,"[4]; LRRK2 G2019S, read-out: % Inhibition 2",100%
same,inhibition,"[4]; LRRK2 G2019S, read-out: % Inhibition Avg",100%
